Assay [1] concerns the target T1, adenosine A2A receptor (Rattus norvegicus, UniProt P30543).
T1 construct: from tissue; host or cells: rat corpus striatum, washed membrane suspension
Nature of the assay: Adenosine receptor binding activity (adenosine A2A receptor binding test), 3H-CGS 21680 binding. As to conditions: 2 h, read-out: A2A receptor inhibition ratio (%); for inhibition at 0.1 µM: 10^-7 M; for inhibition at 0.01 µM: 10^-8 M. How it is done:
Adenosine receptor binding activity (adenosine A2A receptor binding test) This test was carried out by slightly modifying the method of Bruns et al. [Molecular Pharmacology, 29: 331 (1986)].
Corpus striatum of a rat was suspended in an ice-cooled 50 mM tris(hydroxymethyl)aminomethane hydrochloride (hereinafter referred to as "Tris-HCl") buffer (pH 7.7) using Polytron Homogenizer (manufactured by Kinematica Co.). The suspension was centrifuged (50,000×g, 10 minutes), and the obtained precipitate was re-suspended in the same amount of 50 mM Tris-HCl buffer. The suspension was centrifuged under the same conditions, and the final precipitate was suspended in 50 mM Tris-HCl [containing 10 mM magnesium chloride and 0.02 unit/mg tissue of adenosine deaminase (manufactured by Sigma Co.)] to give a tissue concentration of 5 mg (wet weight)/ml.
To 1 ml of the tissue suspension thus prepared were added 50 μl of tritium-labeled CGS 21680 {^3 H-2-[p-(2-carboxyethyl)phenethylamino]-5'-N-ethylcarboxamido)adenosine: 40 Ci/mmol; manufactured by New England Nuclear Co.[The Journal of Pharmacology and Experimental Therapeutics, 251: 888 (1989)]} (final concentration:4.0 nM) and 50 μl of a test compound. The resulting mixture was allowed to stand for 120 minutes at 25° C., and then rapidly filtered by suction through a glass fiber filter (GF/C, manufactured by Whatman Co.) The filter was immediately washed three times with […] of an ice-cooled 50 mM Tris-HCl buffer, and transferred to a vial, a scintillator (EX-H , manufactured by Wako Pure Chemical Industries, Ltd.) was added thereto, and the radioactivity on the filter was determined with a liquid scintillation counter (manufactured by Packard Instrument Co.) […]
The inhibition ratio of the test compound against the A2A receptor binding (^3 H-CGS 21680 binding) was calculated by the following equation:
Inhibition ratio (%)={1-(Amount of the binding in the presence of the test compound-Amount of the nonspecific binding)/(Amount of the total binding-Amount of the nonspecific binding)}×100
(Note) Amount of the total binding means the amount of radioactivity of ^3 H-CGS 21680 bound in the absence of the test compound. Amount of the nonspecific binding means the amount of radioactivity of ^3 H-CGS 21680 bound in the presence of 100 μM cyclopentyladenosine (CPA, manufactured by Sigma Co.) Amount of the binding in the presence of the test compound means the amount of radioactivity of ^3 H-CGS 21680 bound in the presence of the test compound at various levels of concentrations.

For assay [2], the system named is CGS 21680-induced catalepsy in mice. Nature of the assay: Activity on CGS 21680-induced Catalepsy. The class given is in vivo, mouse (male ddY). As to conditions: 10 mg/kg oral; for Total score (catalepsy): 10 animals, maximum 50 points, control 48; for Number of Animals showing remission: catalepsy score 4 points or less in 10 cases; for inhibition in vivo at 10 mg/kg: Mus musculus, CGS 21680-induced catalepsy, read-out: Remission ratio (%). How it is done: Activity on CGS 21680-induced Catalepsy
Parkinson's disease is motor deficit based on the degeneration and cell death of the nigrostriatal dopaminergic neuron. […] [Journal of Neuroscience, 16: 605 (1996)]. Accordingly, it is considered that adenosine A2A receptor agonists positively regulate the output of the striopallidal GABAergic neurons and, as a result, catalepsy is induced by the administration of CGS 21680.
This test was carried out using 10 animals per group of male ddY mice of 5 week age (22 to 25 g in body weight, Japan SLC). CGS 21680 (manufactured by RBI) was dissolved in a physiological saline (manufactured by Otsuka Pharmaceutical), and 10 μg/20 μl of the solution was injected into mouse intracerebro-ventricle. Test compounds were used by suspending them in distilled water containing 0.3% of polyoxyethylene(20)sorbitan monooleate (hereinafter referred to as "Tween 80") (manufactured by Otsuka Pharmaceutical). […] One hour after the administration of the test compound, only forelimbs or only hindlimbs of each animal were laid on a vertically arranged stand made of acryl, having a size of 4.5 cm in height and 1.0 cm in width, to measure catalepsy symptoms. All of the compounds were administered orally in a dose of 10 mg/kg.
The effect was judged by total catalepsy scores of 10 animals in one group (the maximum is 50 points). When the total score was 40 points or less, the activity of drugs was judged positive. The number of animals showing remission of catalepsy was expressed by the number of cases in which the catalepsy score was 4 points or less in 10 cases. The catalepsy remission ratio was expressed as the percentage of the total score in the test compound-administered group to the total score in the control group.

Structures can show the parent of a compound that is named as a salt.

T1 sequence (P30543 whole entry): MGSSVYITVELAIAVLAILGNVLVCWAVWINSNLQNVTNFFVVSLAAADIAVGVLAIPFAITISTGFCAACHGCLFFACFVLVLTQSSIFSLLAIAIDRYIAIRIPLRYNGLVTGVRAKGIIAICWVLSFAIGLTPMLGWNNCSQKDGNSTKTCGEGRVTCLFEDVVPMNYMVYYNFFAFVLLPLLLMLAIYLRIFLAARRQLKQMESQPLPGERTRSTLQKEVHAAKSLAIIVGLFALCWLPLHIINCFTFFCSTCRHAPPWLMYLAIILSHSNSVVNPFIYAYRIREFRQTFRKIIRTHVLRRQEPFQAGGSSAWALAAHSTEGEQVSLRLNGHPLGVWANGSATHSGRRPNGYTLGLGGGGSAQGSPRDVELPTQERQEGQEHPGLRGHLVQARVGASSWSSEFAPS

`Nc1nc(N2CCN(Cc3ccncc3)CC2)cc2nc(-c3ccco3)nn12` [Compound 71, 5-Amino-2-(2-furyl)-7-[4-(4-picolyl)piperazinyl][1,2,4]triazolo[1,5-c]pyrimidine]: in assay [1], the inhibition at 0.1 µM came out at 73% and the inhibition at 0.01 µM amounted to 29%.

As to `C[C@@H]1CN(c2cc3nc(-c4ccco4)nn3c(N)n2)C[C@H](C)N1CCCc1ccccc1` [Compound 119, 5-Amino-7-(cis-3,5-dimethyl-4-(3-phenylpropyl)piperazinyl)-2-(2-furyl)[1,2,4]triazolo[1,5-c]pyrimidine], the inhibition at 0.1 µM in assay [1] was 51%.

As to `Cc1ccc(CSc2cc3nc(-c4ccco4)nn3c(N)n2)cc1` [Compound 186, 5-Amino-2-(2-furyl)-7-(4-methylbenzylthio)[1,2,4]triazolo[1,5-c]pyrimidine], the inhibition at 0.1 µM in assay [1] was determined as 52%.

Regarding `Nc1nc(N2CCN(Cc3cccnc3)CC2)cc2nc(-c3ccco3)nn12` [Compound 70, 5-Amino-2-(2-furyl)-7-[4-(3-picolyl)piperazinyl][1,2,4]triazolo[1,5-c]pyrimidine], in assay [1], the inhibition at 0.1 µM amounted to 66% and the inhibition at 0.01 µM is 17%.

As to `Nc1nc(SCc2ccccc2)cc2nc(-c3ccco3)nn12` [Compound 183, 5-Amino-7-benzylthio-2-(2-furyl)[1,2,4]triazolo[1,5-c]pyrimidine], the inhibition at 0.1 µM in assay [1] was 82%.

As for `COc1cc(OC)cc(Oc2cc3nc(-c4ccco4)nn3c(N)n2)c1` [Compound 33, 5-Amino-7-(3,5-dimethoxyphenoxy)-2-(2-furyl)[1,2,4]triazolo[1,5-c]pyrimidine], in assay [1], the inhibition at 0.1 µM was determined as 86% and the inhibition at 0.01 µM came to 46%.

For the molecule `COc1ccc(CNc2nc(Sc3ccccc3)cc3nc(-c4ccco4)nn23)cc1OC` [Compound 10, 5-(3,4-Dimethoxybenzylamino)-2-(2-furyl)-7-phenylthio[1,2,4]triazolo[1,5-c]pyrimidine], in assay [1], the inhibition at 0.1 µM came out at 54% and the inhibition at 0.01 µM is 16%.

As to `CC(CO)N1CCN(c2cc3nc(-c4ccco4)nn3c(N)n2)CC1` (racemic) [Compound 111, (±)-5-Amino-2-(2-furyl)-7-(4-((2-hydroxy-1-methyl)ethyl)piperazinyl)[1,2,4]triazolo[1,5-c]pyrimidine], the inhibition at 0.1 µM in assay [1] is 52%.

Take `Nc1nc(SCc2ccccc2[N+](=O)[O-])cc2nc(-c3ccco3)nn12` [Compound 194, 5-Amino-2-(2-furyl)-7-(2-nitrobenzylthio)[1,2,4]triazolo[1,5-c]pyrimidine]: the inhibition at 0.1 µM in assay [1] was 75%.

For `Nc1nc(N2CCN(Cc3ccccc3Cl)CC2)cc2nc(-c3ccco3)nn12` [Compound 68, 5-Amino-7-[4-(2-chlorobenzyl)piperazinyl]-2-(2-furyl)[1,2,4]triazolo[1,5-c]pyrimidine], in assay [1], the inhibition at 0.1 µM is 90% and the inhibition at 0.01 µM stood at 59%.

In the case of `Nc1nc(N2CCN(Cc3cccc(Cl)c3)CC2)cc2nc(-c3ccco3)nn12` [Compound 69, 5-Amino-7-[4-(3-chlorobenzyl)piperazinyl]-2-(2-furyl)[1,2,4]triazolo[1,5-c]pyrimidine], in assay [1], the inhibition at 0.1 µM is 62% and the inhibition at 0.01 µM was determined as 44%.

Consider `Nc1nc(SCc2ccccn2)cc2nc(-c3ccco3)nn12` [Compound 182, 5-Amino-2-(2-furyl)-7-(2-picolylthio)[1,2,4]triazolo[1,5-c]pyrimidine], for which the inhibition at 0.1 µM in assay [1] turned out to be 82%.

As to `Nc1nc(N2CCN(c3nc4ccccc4o3)CC2)cc2nc(-c3ccco3)nn12` [Compound 94, 5-Amino-7-(4-(2-benzoxazolyl)piperazinyl)-2-(2-furyl)[1,2,4]triazolo[1,5-c]pyrimidine], in assay [1], the inhibition at 0.1 µM stood at 37%.

As to `COCCN1[C@H](C)CN(c2cc3nc(-c4ccco4)nn3c(N)n2)C[C@@H]1C` [Compound 117, 5-Amino-7-(cis-3,5-dimethyl-4-(2-methoxyethyl)piperazinyl)-2-(2-furyl)[1,2,4]triazolo[1,5-c]pyrimidine], in assay [1], the inhibition at 0.1 µM came to 38%.

Consider `CC(c1ccccc1)N1CCN(c2cc3nc(-c4ccco4)nn3c(N)n2)CC1` (stereo not drawn) [Compound 73, 5-Amino-2-(2-furyl)-7-[4-(1-phenylethyl)piperazinyl][1,2,4]triazolo[1,5-c]pyrimidine], for which, in assay [1], the inhibition at 0.1 µM is 86% and the inhibition at 0.01 µM was found to be 51%.

For the molecule `Nc1nc(N2CCN(CC3CCCCC3)CC2)cc2nc(-c3ccco3)nn12` [Compound 72, 5-Amino-7-(4-cyclohexylmethylpiperazinyl)-2-(2-furyl)[1,2,4]triazolo[1,5-c]pyrimidine], in assay [1], the inhibition at 0.1 µM amounted to 66% and the inhibition at 0.01 µM stood at 10%.

For `COc1ccc(CN2CCN(c3cc4nc(-c5ccco5)nn4c(N)n3)CC2)cc1OC` [Compound 67, 5-Amino-7-[4-(3,4-dimethoxybenzyl)piperazinyl]-2-(2-furyl)[1,2,4]triazolo[1,5-c]pyrimidine], in assay [1], the inhibition at 0.1 µM amounted to 77% and the inhibition at 0.01 µM amounted to 39%.

`COc1ccc(CCN2CCN(c3cc4nc(-c5ccco5)nn4c(N)n3)CC2)cc1OC` [Compound 85, 5-Amino-7-(4-(2-(3,4-dimethoxyphenyl)ethyl)piperazinyl)-2-(2-furyl)[1,2,4]triazolo[1,5-c]pyrimidine]: the inhibition at 0.1 µM in assay [1] is 80%.

In the case of `Nc1nc(N2CCN(c3ncccn3)CC2)cc2nc(-c3ccco3)nn12` [Compound 64, 5-Amino-2-(2-furyl)-7-[4-(2-pyrimidyl)piperazinyl][1,2,4]triazolo[1,5-c]pyrimidine], in assay [2], the “Total score (catalepsy)” value worked out at 5, the “Number of Animals showing remission” value is 10 and the inhibition in vivo at 10 mg/kg is 88%.

With `Nc1nc(N2CCN(Cc3ccc4c(c3)OCO4)CC2)cc2nc(-c3ccco3)nn12` [Compound 66, 5-Amino-2-(2-furyl)-7-(4-piperonylpiperazinyl)[1,2,4]triazolo[1,5-c]pyrimidine], in assay [1], the inhibition at 0.1 µM turned out to be 79% and the inhibition at 0.01 µM is 20%.

As to `Cc1ncc(CN2CCN(c3cc4nc(-c5ccco5)nn4c(N)n3)CC2)s1` [Compound 145, 5-Amino-2-(2-furyl)-7-(4-(2-methylthiazol-5-ylmethyl)piperazinyl)[1,2,4]triazolo[1,5-c]pyrimidine], in assay [2], the “Total score (catalepsy)” value came out at 3, the “Number of Animals showing remission” value was 10 and the inhibition in vivo at 10 mg/kg amounted to 92%.

Regarding `Nc1nc(N2CCN(c3nc4ccccc4s3)CC2)cc2nc(-c3ccco3)nn12` [Compound 95, 5-Amino-7-(4-(2-benzothiazolyl)piperazinyl)-2-(2-furyl)[1,2,4]triazolo[1,5-c]pyrimidine], in assay [2], the “Total score (catalepsy)” value is 16, the “Number of Animals showing remission” value was found to be 8 and the inhibition in vivo at 10 mg/kg came out at 66%.

As for `Nc1nc(N2CCN(CCCOCc3ccccc3)CC2)cc2nc(-c3ccco3)nn12` [Compound 102, 5-Amino-7-(4-(3-benzyloxypropyl)piperazinyl)-2-(2-furyl)[1,2,4]triazolo[1,5-c]pyrimidine hydrochloride], the inhibition at 0.1 µM in assay [1] worked out at 72%.

The values above are taken from patent US6222035A, “[1,2,4] triazolo [1,5-C] pyrimidine derivatives” (Kyowa Hakko Kogyo Co., Ltd., priority 1997, dated 2001).
